Reference: patent publication US11155523B2, “Biphenyl compound as CCR2/CCR5 receptor antagonist” (Medshine Discovery Inc., priority 2016, dated 2021)

Tests used:
CYP2C9 = biological target: T1, CYP2C9 (Homo sapiens, UniProt P11712); assay: Inhibition of human liver microsomal CYP2C9 (diclofenac probe); format: in vitro ADME; details: human liver microsomes
T1 construct: from tissue; host or cells: human liver microsomes
Description: (§1) Experimental Example 4 Inhibition Effect on the Activity of Human Liver Microsomal Cytochrome P450 Isoezymes (CYP1A2, CYP2C9, CYP2C19, CYP2D6 and CYP3A4)
(§2) A total of 5 specific probe substrates for CYP's five isozymes, Phenacetin (CYP1A2), Diclofenac (CYP2C9), […] (S)-Mephenytoin, CYP2C19), Dextromethorphan (CYP2D6) and Midazolam (CYP3A4) were incubated with human liver microsomes and test compounds, respectively, and reduced nicotinamide adenine dinucleotide phosphate (NADPH) was added to initiate the reaction. After the reaction, the sample was processed and liquid chromatography tandem mass spectrometry (LC-MS/MS) was used to quantitatively detect the […] metabolites produced by the specific substrate, Acetaminophen and 4′-hydroxydiclofenac, 4′-hydroxymephenytoin, Dextrorphan and 1′-hydroxymidazolam, in order to calculate the corresponding half maximal inhibitory concentration (IC50).

CYP1A2 = biological target: T2, CYP1A2 (Homo sapiens, UniProt P05177); assay: Inhibition of human liver microsomal CYP1A2 (phenacetin probe); format: in vitro ADME; details: human liver microsomes
T2 construct: from tissue; host or cells: human liver microsomes
T2 sequence (P05177 1-516): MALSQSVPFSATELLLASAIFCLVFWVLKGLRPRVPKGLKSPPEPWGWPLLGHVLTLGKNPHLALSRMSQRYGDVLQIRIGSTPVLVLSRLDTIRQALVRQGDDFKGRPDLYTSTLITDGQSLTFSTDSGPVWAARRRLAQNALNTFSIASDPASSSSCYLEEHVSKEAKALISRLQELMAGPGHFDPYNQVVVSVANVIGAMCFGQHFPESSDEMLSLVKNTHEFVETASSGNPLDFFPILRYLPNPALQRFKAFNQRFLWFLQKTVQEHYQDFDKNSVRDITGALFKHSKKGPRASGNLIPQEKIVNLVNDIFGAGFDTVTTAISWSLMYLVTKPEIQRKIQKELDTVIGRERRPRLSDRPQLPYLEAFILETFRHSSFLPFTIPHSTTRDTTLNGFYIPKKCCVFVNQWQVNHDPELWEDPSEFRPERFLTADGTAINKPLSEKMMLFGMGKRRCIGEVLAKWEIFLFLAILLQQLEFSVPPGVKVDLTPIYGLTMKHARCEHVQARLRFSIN
Description: as §1, §2

[1] = Comparative pharmacokinetics study in cynomolgus monkeys; format: in vivo; details: cynomolgus monkey
Source text: Experimental Example 3: Comparative Pharmacokinetics Study in Cynomolgus Monkeys
Male cynomolgus monkeys were used as the test animals in this study. The drug concentrations in plasma of the cynomolgus monkeys by intravenous or oral administration of test compound WX047 and reference compound at different time points were quantitatively determined by LC/MS/MS, which were used to evaluate the pharmacokinetic profile of the two test drugs in cynomolgus monkeys.
A clear solution of the test compound was injected into cynomolgus monkeys via t the cephalic or saphenous vein (overnight fasting, 2.5-7 kg), and the test compound was intragastrically administered to the cynomolgus monkeys (overnight fasting, 7-10 weeks old). Approximately 400 μL of blood was collected from the peripheral vein of the animals 0.0833, 0.25, 0.5, 1, 2, 4, 6, 8, 12 and 24 hours after administration, and transferred into an commercial centrifuge tube containing EDTA-K2*2H2O anticoagulation. The plasma was collected by centrifugation at 3000 g for 10 minutes at 4° C. The plasma concentration was determined by LC-MS/MS. The pharmacokinetic parameters were calculated by the non-compartment model linear logarithmic trapezoidal method using WinNonlin™ Version 6.3 (Pharsight, Mountain View, Calif.) pharmacokinetic software.

CYP2C19 = biological target: T3, CYP2C19 (Homo sapiens, UniProt P33261); assay: Inhibition of human liver microsomal CYP2C19 ((S)-mephenytoin probe); format: in vitro ADME; details: human liver microsomes
T3 construct: from tissue; host or cells: human liver microsomes
Description: as §1, §2

[2] = male, plasma, intravenous injection 1 mg/kg

T3 sequence (P33261 whole entry): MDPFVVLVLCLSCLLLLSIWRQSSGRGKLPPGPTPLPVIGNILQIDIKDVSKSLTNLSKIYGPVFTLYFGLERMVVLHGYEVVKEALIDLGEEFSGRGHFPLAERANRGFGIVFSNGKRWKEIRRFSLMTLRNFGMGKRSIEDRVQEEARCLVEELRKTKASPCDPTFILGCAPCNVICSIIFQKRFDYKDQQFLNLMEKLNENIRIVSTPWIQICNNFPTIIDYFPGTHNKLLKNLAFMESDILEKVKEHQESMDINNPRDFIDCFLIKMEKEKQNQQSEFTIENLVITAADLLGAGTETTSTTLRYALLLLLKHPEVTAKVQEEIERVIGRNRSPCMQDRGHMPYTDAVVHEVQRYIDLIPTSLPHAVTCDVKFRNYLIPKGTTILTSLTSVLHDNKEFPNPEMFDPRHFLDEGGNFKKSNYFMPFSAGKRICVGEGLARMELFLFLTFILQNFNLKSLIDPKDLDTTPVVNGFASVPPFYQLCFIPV
T1 sequence (P11712 whole entry): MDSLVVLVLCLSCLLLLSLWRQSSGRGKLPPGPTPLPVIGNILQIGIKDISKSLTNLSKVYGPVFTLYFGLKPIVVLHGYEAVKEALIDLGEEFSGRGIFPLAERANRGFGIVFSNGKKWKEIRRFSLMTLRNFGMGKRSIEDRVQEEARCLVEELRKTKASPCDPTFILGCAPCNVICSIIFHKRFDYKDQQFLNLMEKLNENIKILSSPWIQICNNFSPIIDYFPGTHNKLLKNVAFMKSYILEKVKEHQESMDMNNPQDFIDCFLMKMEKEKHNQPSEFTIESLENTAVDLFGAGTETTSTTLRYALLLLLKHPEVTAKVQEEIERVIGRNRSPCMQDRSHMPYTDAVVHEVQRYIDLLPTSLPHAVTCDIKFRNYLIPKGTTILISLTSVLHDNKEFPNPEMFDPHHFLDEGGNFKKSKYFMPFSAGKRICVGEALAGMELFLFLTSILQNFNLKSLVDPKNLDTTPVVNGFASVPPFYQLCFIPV

- IC50 (CYP2C9): > 50 µM
- IC50 (CYP1A2): > 50 µM
- Area Under a Curve (0-inf) ([1]; intravenous injection 1 mg/kg): 3.149 µM·h
- Area Under a Curve (0-inf/0-last) ([1]; oral 3 mg/kg): 3.678 µM·h
- Peak time ([1]; oral 3 mg/kg): 2.0 h
- Oral plasma system exposure (AUC0-inf) as multiple of the reference compound ([1]; oral, relative to Cenicriviroc): 10.8 times
- Bioavailability as multiple of the reference compound ([1]; relative to Cenicriviroc): 7.6 times
- clearance [1, 2]: 9.11 mL/min/kg
- half-life [1, 2]: 1.66 h
- bioavailability ([1]; male, plasma, oral 3 mg/kg vs intravenous 1 mg/kg): 38.9%
- IC50 (CYP2C19): > 50 µM
Structure (SMILES): CCCCOCCOc1ccc(-c2ccc(OCC)c(/C=C/C(=O)Nc3ccc([S@+]([O-])Cc4c(C)ncn4CC)cc3)c2)cc1 [WX047]
